Test results from patent US10920265B2, “Compounds and methods for detection of enzymes that remove methyl succinyl groups from epsilon-amino lysine moieties” (Enzo Life Sciences, Inc., priority 2011, dated 2021).
*: point of attachment. AMC = Cc1cc(=O)oc2cc(N*)ccc12

Legend:
Experiment in all cases: Sirtuin activity with fluorogenic lysyl substrates
Assay type in all cases: biochemical
Details in all cases: 50 μM substrate, 500 μM NAD^+
SIRT1 = molecular target: T1, SIRT1 (Homo sapiens, UniProt Q96EB6)
T1 construct: purchased ENZO Life Sciences BML-SE239
T1 sequence (Q96EB6 1-747): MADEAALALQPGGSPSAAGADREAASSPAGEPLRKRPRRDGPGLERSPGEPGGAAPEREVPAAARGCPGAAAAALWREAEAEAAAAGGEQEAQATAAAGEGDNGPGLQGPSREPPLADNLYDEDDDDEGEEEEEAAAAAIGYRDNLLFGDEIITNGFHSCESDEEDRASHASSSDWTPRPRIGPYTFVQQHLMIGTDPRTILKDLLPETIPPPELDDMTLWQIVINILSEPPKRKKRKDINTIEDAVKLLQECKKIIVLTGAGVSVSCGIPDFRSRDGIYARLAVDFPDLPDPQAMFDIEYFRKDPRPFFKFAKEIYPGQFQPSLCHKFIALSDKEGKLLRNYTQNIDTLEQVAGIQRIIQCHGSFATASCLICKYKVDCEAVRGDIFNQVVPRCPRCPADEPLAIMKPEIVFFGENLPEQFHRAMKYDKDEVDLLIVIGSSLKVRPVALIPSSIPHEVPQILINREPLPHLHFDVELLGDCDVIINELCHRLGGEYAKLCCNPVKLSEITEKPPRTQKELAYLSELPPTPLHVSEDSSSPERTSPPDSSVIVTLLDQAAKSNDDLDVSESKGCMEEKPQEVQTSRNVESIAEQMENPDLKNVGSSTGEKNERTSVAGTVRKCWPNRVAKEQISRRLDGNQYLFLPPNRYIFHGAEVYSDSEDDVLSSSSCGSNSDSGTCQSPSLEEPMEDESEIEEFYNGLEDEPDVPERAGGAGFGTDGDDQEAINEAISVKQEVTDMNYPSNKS
Experimental: (§1) The Ac-Lys(Succ.)-AMC substrate was tested for activity with recombinant preparations of human HDACs 1-11, SIRTs 1-4, 6 and 7, a complex of HDAC3 with a fragment of the activating protein NCOR1 and with HeLa nuclear extract, a rich source of active HDACs in their native multiprotein complexes.
(§2) Enzyme and extract catalog products obtained from ENZO Life Sciences included: HDAC1 (Cat. # BML-SE456), HDAC2 (Cat. # BML-SE500), HDAC3 (Cat. # BML-SE507), HDAC3/NCOR1 Complex (Cat. # BML-SE515), HDAC6 (Cat. # BML-SE508), HDAC8 (Cat. # BML-SE145), HDAC10 (Cat. # BML-SE559), HDAC11 (Cat. # BML-SE560), SIRT1 (Cat. # BML-SE239), SIRT2 (Cat. # BML-SE251), SIRT3 (Cat. # BML-SE270), SIRT5 (Cat. # BML-SE555), HeLa Nuclear Extract (Cat. # BML-KI140), Trypsin (“Fluor de Lys Developer”, 80 mg/ml bovine trypsin in 1 mM HCl, Cat. # BML-KI105 or “Fluor de Lys Developer II”, 80 mg/ml bovine trypsin in 1 mM HCl, Cat. # BML-KI176). […] Enzymes obtained from BPS Bioscience, San Diego, Calif. included: human recombinants SIRT4 (Cat. #50015), SIRT6 (Cat. #50017), SIRT7 (Cat. #50018). HeLa whole cell extract was obtained from HeLa S3 cells (American Type Culture Collection) grown in a medium of MEM/10% fetal bovine serum (FBS) as follows: 1) 9×10^6 cells were suspended by trypsinization, followed by a phosphate buffered saline (PBS) rinse and addition of MEM/10% FBS (1.5 mL) to eliminate trypsin before transfer to a 15 mL conical tube; 2) cells were sedimented by a low speed centrifugation, gently resuspended in PBS and sedimented again and supernatant removed; 3) lysis was induced by resuspension in 0.8 mL 50 mM Tris/HCl, pH 8.0 with the non-denaturing detergent NP-40 (0.5%), placement on ice and brief vortexing every 5 min. for 30 min.; 4) 100 μl of a concentrated salt solution in the same buffer was added in order to bring the final buffer composition to 50 mM Tris/C1, pH 8.0, 137 mM NaCl, 2.7 mM KCl, 1 mM MgCl2, 0.5% NP-40; 5) particulate matter was cleared by centrifugation and the cleared lysate supernatant transferred to a 1.5 mL Eppendorf tube and stored on ice until use in activity assays.
(§3) Assays were performed at 37° C., according to the manufacturer's instructions for the “SIRT1 Fluorometric Drug Discovery Kit” from Enzo Life Sciences (ELS) (Cat. # BML-AK555), with exceptions described as follows. Where indicated in figures and text, SIRT1 enzyme was replaced with another enzyme or extract and the “Fluor de Lys-SIRT1 Substrate” (Ac-Arg-His-Lys-Lys(Ac)-AMC; ELS Cat. # BML-KI-177) was replaced with another acetylated, succinylated or trifluoroacetylated substrate.

SIRT7 = molecular target: T2, SIRT7 (Homo sapiens, UniProt Q9NRC8)
T2 construct: purchased BPS Bioscience 50018
T2 sequence (Q9NRC8 1-400): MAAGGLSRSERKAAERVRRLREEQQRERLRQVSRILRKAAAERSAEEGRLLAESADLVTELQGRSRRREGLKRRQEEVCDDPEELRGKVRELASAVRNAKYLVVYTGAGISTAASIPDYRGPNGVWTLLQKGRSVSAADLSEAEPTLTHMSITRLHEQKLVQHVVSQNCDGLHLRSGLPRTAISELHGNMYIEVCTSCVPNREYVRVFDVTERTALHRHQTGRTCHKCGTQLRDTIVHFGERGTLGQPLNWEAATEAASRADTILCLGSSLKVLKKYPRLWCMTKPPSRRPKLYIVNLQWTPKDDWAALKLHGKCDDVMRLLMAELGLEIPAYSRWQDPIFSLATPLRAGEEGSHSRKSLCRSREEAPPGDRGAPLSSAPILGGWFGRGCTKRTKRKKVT
Experimental: as §1, §2, §3

SIRT6 = molecular target: T3, SIRT6 (Homo sapiens, UniProt Q8N6T7)
T3 construct: purchased BPS Bioscience 50017
Experimental: as §1, §2, §3

T3 sequence (Q8N6T7 whole entry): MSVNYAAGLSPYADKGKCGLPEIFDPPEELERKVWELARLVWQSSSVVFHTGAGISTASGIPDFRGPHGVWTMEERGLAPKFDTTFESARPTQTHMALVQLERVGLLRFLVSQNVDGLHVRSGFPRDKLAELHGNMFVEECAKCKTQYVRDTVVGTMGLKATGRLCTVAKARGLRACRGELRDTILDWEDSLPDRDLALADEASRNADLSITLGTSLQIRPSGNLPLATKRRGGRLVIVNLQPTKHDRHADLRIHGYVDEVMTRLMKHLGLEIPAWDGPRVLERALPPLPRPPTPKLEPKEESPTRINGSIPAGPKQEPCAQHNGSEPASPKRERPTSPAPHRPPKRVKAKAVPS

Activity (SIRT1) | Activity (pmol/min/μg) (SIRT7) | Activity (pmol/min/μg) (SIRT1) | Activity (pmol/min/μg) (SIRT6) | Activity (SIRT6) | Compound
 | Undetectable | Undetectable | Undetectable |  | CC(=O)N[C@@H](CCCCNC(=O)CCC(=O)O)C(=O)Nc1ccc2c(C)cc(=O)oc2c1 [Compound 1, N—(N^α-acetyl-L-Lysine(N^ε-succinyl))-AMC]
0.043 pmol/min/µg | Undetectable |  |  | 0.074 pmol/min/µg | CCCCCCCCCCCCCC(=O)NCCCC[C@H](NC(C)=O)C(=O)Nc1ccc2c(C)cc(=O)oc2c1 [Compound 4, N—(N^α-acetyl-L-Lysine(N^ε-myristoyl))-AMC]
0.002 pmol/min/µg | Undetectable |  |  | 0.006 pmol/min/µg | COC(=O)CCC(=O)NCCCC[C@H](NC(C)=O)C(=O)Nc1ccc2c(C)cc(=O)oc2c1 [Compound 5, N—(N^α-acetyl-L-Lysine(N^ε-methyl succinyl))-AMC]

The remaining lines, values behind:

Compound | Activity (SIRT1) | Activity (pmol/min/μg) (SIRT7) | Activity (pmol/min/μg) (SIRT1) | Activity (pmol/min/μg) (SIRT6) | Activity (SIRT6)
CC(=O)NCCCCC(NC(C)=O)C(=O)Nc1ccc2c(C)cc(=O)oc2c1 (stereo not shown) [Ac-Lys(Ac.)-AMC, Ac-Lys(ε-acetyl)-AMC, reference compound] | 0.391 pmol/min/µg | Undetectable |  |  | 
Ac-Arg-His-Lys-Lys(ε-acetyl)-AMC (Ac-RHKK(Ac)-{AMC}; SMILES CC(=O)NCCCC[C@H](NC(=O)[C@H](CCCCN)NC(=O)[C@H](Cc1c[nH]cn1)NC(=O)[C@H](CCCNC(=N)N)NC(C)=O)C(=O)Nc1ccc2c(C)cc(=O)oc2c1) [Ac-RHKK(Ac)-AMC, p53 peptide fluorogenic deacetylase substrate, Cat. # BML-KI177, reference compound] |  |  | Ac-RHKK(Ac)-AMC/64 pmol/min/μg | Ac-RHKK(Ac)-AMC/0.052 pmol/min/μg | 
